Data set [1] is described as follows: Absorption from rat duodenum: intraduodenal injection, plasma concentration by competitive enzyme immunoassay. The format is in vivo. The following applies: for Cmax: peak plasma concentration by inspection. The procedure:
Female Sprague-Dawley rats (250-275 g) (n=4 for each peptide) were anesthetized with ketamine and xylazine prior to the insertion of a cannula in the carotid artery. The cannula was fitted to a three way valve through which blood was sampled and replaced with physiological saline containing heparin. A midline incision was made in the abdominal cavity, and 0.45 mL of either sCT-gly (10 mg/mL) or OmpA-MT3-sCT-gly (10 mg/mL) in 0.5M citric acid was injected directly into the duodenum. Blood (0.5 ml) was collected before and at 5, 15, 30, 45 and 60 minutes after administration of the peptides. The blood was centrifuged, and the concentration (± SEM [standard error of the mean]) of sCT-gly or OmpA-MT3-sCT-gly in the plasma supernatant was determined by a competitive enzyme immunoassay (EIA). Peak plasma concentration (Cmax) was determined by inspection. The absolute bioavailbilty of each peptide (relative to an intravenous dose of sCT [salmon calcitonin]) was calculated from plots of the plasma concentration of each peptide as a function to time.

The conditions of data set [2]: cited from earlier work.
Data set [3] in a line: Blood levels of salmon calcitonin after direct injection into duodenum, ileum or colon of rats. The format is in vivo. The following applies: rat, other: injected directly into the duodenum, active components injected directly into duodenum. From the text:
The acid is believed to lower the local intestinal pH (where the active agent has been released) to levels below the optimal range for many intestinal proteases and other intestinal enzymes. This decrease in pH reduces the proteolytic activity of the intestinal proteases, thus affording protection to the peptide and the membrane translocator from potential degradation. The activity of these proteases is diminished by the temporarily acidic environment provided by the invention. It is preferred that sufficient acid be provided that local intestinal pH is lowered temporarily to 5.5 or below, preferably 4.7 or below and more preferably 3.5 or below. The sodium bicarbonate test described below (in the section captioned “the pH-Lowering Agent”) is indicative of the required acid amount.

Setting [4] is: 0 min (before administration), 0.45 mL of 10 mg/mL in 0.5M citric acid into duodenum, ± SEM, n=4.

Read-outs that look alike come from different tables or passages of the source.

The term Cmax denotes the maximum level reached in the sampled fluid or tissue. For orientation: bioavailability means the share of a dose that reaches the circulation, judged against a reference dose that is usually intravenous. On to `CC(C)C[C@H](NC(=O)[C@H](CCCCN)NC(=O)CNC(=O)[C@H](CC(C)C)NC(=O)[C@@H](NC(=O)[C@@H]1CSSC[C@H](N)C(=O)N[C@@H](CO)C(=O)N[C@@H](CC(N)=O)C(=O)N[C@@H](CC(C)C)C(=O)N[C@@H](CO)C(=O)N[C@@H]([C@@H](C)O)C(=O)N1)C(C)C)C(=O)N[C@@H](CO)C(=O)N[C@@H](CCC(N)=O)C(=O)N[C@@H](CCC(=O)O)C(=O)N[C@@H](CC(C)C)C(=O)N[C@@H](Cc1c[nH]cn1)C(=O)N[C@@H](CCCCN)C(=O)N[C@@H](CC(C)C)C(=O)N[C@@H](CCC(N)=O)C(=O)N[C@H](C(=O)N[C@@H](Cc1ccc(O)cc1)C(=O)N1CCC[C@H]1C(=O)N[C@@H](CCCNC(=N)N)C(=O)N[C@H](C(=O)N[C@@H](CC(N)=O)C(=O)N[C@H](C(=O)NCC(=O)N[C@@H](CO)C(=O)NCC(=O)N[C@H](C(=O)N1CCC[C@H]1C(=O)NCC(=O)O)[C@@H](C)O)[C@@H](C)O)[C@@H](C)O)[C@@H](C)O` [sCT-gly, CYS-SER-ASN-LEU-SER-THR-CYS-VAL-LEU-GLY-LYS-LEU-SER-GLN-GLU-LEU-HIS-LYS-LEU-GLN-THR-TYR-PRO-ARG-THR-ASN-THR-GLY-SER-GLY-THR-PRO-GLY], for which the plasma concentration in data set [1] (setting [4]) is listed as 0.00 ng/mL. In data set [1] (female, Sprague-Dawley, 4.5 mg, intraduodenal, rat, ± SEM, read-out: Cmax), the highest concentration (Cmax) amounted to 223 ± 44.8 ng/mL. The bioavailability in data set [1] (female, Sprague-Dawley, plasma, other: injected directly into the duodenum (intraduodenal), 4.5 mg, relative to an intravenous dose of sCT, intraduodenal, rat, ± SEM, read-out: Absolute bioavailability) worked out at 0.92 ± 0.23%. The same molecule registered a level at 5 min in data set [1] (female, Sprague-Dawley, rat, plasma, 4.5 mg per animal, 5 min after intraduodenal injection, ± SEM, n=4) of 201 ± 73.7 ng/mL. The molecule further returned a level at 0.25 h in data set [1] (female, Sprague-Dawley, rat, plasma, 4.5 mg per animal, 15 min after intraduodenal injection, ± SEM, n=4) of 116 ± 39.1 ng/mL. In addition, the level at 0.5 h in data set [1] (female, Sprague-Dawley, rat, plasma, 4.5 mg per animal, 30 min after intraduodenal injection, ± SEM, n=4) came out at 223 ± 44.8 ng/mL. This molecule also registered a level at 0.75 h in data set [1] (female, Sprague-Dawley, rat, plasma, 4.5 mg per animal, 45 min after intraduodenal injection, ± SEM, n=4) of 151 ± 107 ng/mL. The same molecule registered a level at 1 h in data set [1] (female, Sprague-Dawley, rat, plasma, 4.5 mg per animal, 60 min after intraduodenal injection, ± SEM, n=4) of 179 ± 76.2 ng/mL.
The term half-life denotes how long it takes for the measured level to halve. The term Tmax denotes the time at which the peak concentration occurs. Turning to `CC(C)C[C@H](NC(=O)[C@H](CCCCN)NC(=O)CNC(=O)[C@H](CC(C)C)NC(=O)[C@@H](NC(=O)[C@@H]1CSSC[C@H](N)C(=O)N[C@@H](CO)C(=O)N[C@@H](CC(N)=O)C(=O)N[C@@H](CC(C)C)C(=O)N[C@@H](CO)C(=O)N[C@@H]([C@@H](C)O)C(=O)N1)C(C)C)C(=O)N[C@@H](CO)C(=O)N[C@@H](CCC(N)=O)C(=O)N[C@@H](CCC(=O)O)C(=O)N[C@@H](CC(C)C)C(=O)N[C@@H](Cc1c[nH]cn1)C(=O)N[C@@H](CCCCN)C(=O)N[C@@H](CC(C)C)C(=O)N[C@@H](CCC(N)=O)C(=O)N[C@H](C(=O)N[C@@H](Cc1ccc(O)cc1)C(=O)N1CCC[C@H]1C(=O)N[C@@H](CCCNC(=N)N)C(=O)N[C@H](C(=O)N[C@@H](CC(N)=O)C(=O)N[C@H](C(=O)NCC(=O)N[C@@H](CO)C(=O)NCC(=O)N[C@H](C(=O)N1CCC[C@H]1C(N)=O)[C@@H](C)O)[C@@H](C)O)[C@@H](C)O)[C@@H](C)O` [salmon calcitonin], in data set [2] (conventional dosages), the “blood levels more than two hours after injection” value is given as “no detectable blood levels”. Besides, in data set [2] (patients), the “peak level at which some patients report gastrointestinal distress” value is no less than 200 picograms per milliliter. In addition, the half-life in data set [2] (subcutaneous administration in man) is 20 to 40 min. Also, the peak serum concentration entry in data set [2] (subcutaneous, 100 International units) is on record as “about 250 picograms per milliliter”. For the same molecule, in data set [3], the Tmax lay in the range of 5 to 15 min.

B1: OmpA-MT3-sCT-gly: salmon calcitonin-Gly fused to two MTs, the unprocessed OmpA signal peptide and MTS3 (HIV TAT domain), with TRP-VAL-ALA cleavable sequence (protein)
chain: MKKTAIAIAVALAGFATVAQAYGRKKRRQRRRWVACSNLSTCVLGKLSQELHKLQTYPRTNTGSGTPG
modifications: ends and bridges not checked
Regarding B1, the plasma concentration is listed as 0.00 ng/mL in data set [1] (setting [4]); 563.07 ± 150.44 ng/mL in data set [1] (5 min after intraduodenal injection, ± SEM, n=4); 1861.86 ± 713.20 ng/mL in data set [1] (15 min after intraduodenal injection, ± SEM, n=4); 5603.76 ± 1749.75 ng/mL in data set [1] (30 min after intraduodenal injection, ± SEM, n=4); 3879.76 ± 713.62 ng/mL in data set [1] (45 min after intraduodenal injection, ± SEM, n=4); 6060.70 ± 2462.69 ng/mL in data set [1] (60 min after intraduodenal injection, ± SEM, n=4). For the same molecule, the “Cmax relative to that of sCT-gly” value in data set [1] (intraduodenal, rat) is given as “more than 25 fold”. This molecule also returned a Cmax in data set [1] (intraduodenal, rat, ± SEM) of 6060.70 ± 2462.69 ng/mL. Also, the Absolute bioavailability in data set [1] (relative to an intravenous dose of sCT, intraduodenal, rat, ± SEM) is 21.26 ± 6.23%.

The values are drawn from patent publication US6673574B2, “Oral delivery of peptides using enzyme-cleavable membrane translocators” (Unigene Laboratories Inc., priority 2000, dated 2004).
